Reference: patent US7655632B2, “Pyrazole derivative, medicinal composition containing the same, medicinal use thereof, and intermediate for production thereof” (Kissei Pharmaceutical Co., Ltd., priority 2002, dated 2010)

Tests used:
[1] = test system: diabetic rats; experiment: Assay for inhibitory effects on blood glucose level increase in rats (liquid meal tolerance test in diabetic rat model); format: in vivo; settings: test compound 1 mg/kg orally, liquid meal 17.25 kcal/kg, mean ± S.E.
Description: Assay for Inhibitory Effects on Blood Glucose Level Increase in rats
1) Preparation of Diabetic Rat Model
Male wistar rats (Japan Charles River), aged 8 weeks old, were injected nicotinamide (230 mg/kg) intraperitoneally. Fifteen minutes after injection, they were injected streptozotocin (85 mg/kg) intravenously from tail vain under anesthesia with ether. After a week, rats were fasted overnight and then glucose tolerance test (2 g/kg) was done.
2) Liquid Meal Tolerance Test
After overnight fasted, the diabetic rats were orally administered a test compound (1 mg/kg), which was dissolved in distilled water, in the drug-treating group, or distilled water alone in a control group. Immediately after the compound administration, 17.25 kcal/kg of liquid meal (No. 038, Control diet, assorted with dextrin and maltose; Oriental Yeast Co., Ltd.) was loaded orally. The blood was collected from tail artery immediately before and after administration with the time course, and treated with heparin immediately. The blood was centrifuged, and the plasma was collected to quantify the plasma glucose concentration by glucose oxidase method. The values in the table are presented as the mean ±S.E.

[2] = biological target: T1, human SGLT1 (Homo sapiens, UniProt P13866); experiment: Assay for inhibitory effects on human SGLT1 activity (uptake of methyl-α-D-glucopyranoside in CS1-5-11D cells); format: cell-based; settings: CHO-K1 cells stably expressing human SGLT1 (CS1-5-11D); 1 mM α-MG uptake, 37° C., 1 hour
T1 construct: expressed in transfected cells
T1 sequence (P13866 1-664): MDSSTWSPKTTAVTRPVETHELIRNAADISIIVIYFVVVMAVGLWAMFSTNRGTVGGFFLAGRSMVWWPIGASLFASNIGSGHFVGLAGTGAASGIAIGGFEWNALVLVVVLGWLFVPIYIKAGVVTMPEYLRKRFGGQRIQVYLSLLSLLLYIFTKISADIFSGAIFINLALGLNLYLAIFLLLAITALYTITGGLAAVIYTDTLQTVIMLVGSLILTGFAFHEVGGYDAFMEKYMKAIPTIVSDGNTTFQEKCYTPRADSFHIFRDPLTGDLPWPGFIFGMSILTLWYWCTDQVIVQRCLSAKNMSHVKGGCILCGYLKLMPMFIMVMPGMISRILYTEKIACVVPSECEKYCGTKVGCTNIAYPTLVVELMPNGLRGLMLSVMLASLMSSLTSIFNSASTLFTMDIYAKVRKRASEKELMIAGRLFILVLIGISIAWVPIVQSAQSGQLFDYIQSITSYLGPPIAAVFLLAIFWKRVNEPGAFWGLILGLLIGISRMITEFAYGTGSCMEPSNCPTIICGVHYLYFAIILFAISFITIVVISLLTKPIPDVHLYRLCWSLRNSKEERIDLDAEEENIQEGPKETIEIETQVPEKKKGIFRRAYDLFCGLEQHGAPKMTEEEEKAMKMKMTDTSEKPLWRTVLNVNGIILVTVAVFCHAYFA
Description: Assay for Inhibitory Effects on Human SGLT1 Activity
1) Cloning and Construction of the Vector Expressing Human SGLT1
The cDNA library was prepared for PCR amplification by reverse transcription from total RNA deprived from human small intestine (Ori gene) using oligo-dT as a primer. Using this cDNA library as a template, the DNA fragment coding 1 to 2005 bp of human SGLT1 (ACCESSION: M24847), which was reported by Hediger et al., was amplified by PCR method and inserted into the multi-cloning site of pcDNA3.1(−) (Invitrogen). The DNA sequence inserted was perfectly matched to the previously reported sequence.
2) Establishment of Cell Line Stably Expressing Human SGLT1
The expression vector of human SGLT1 was digested by Sca I into a linear DNA. The linear DNA was transfected into CHO-K1 cells by means of lipofection (Effectene Transfection Reagent: QIAGEN). Neomycin resistant cell lines were selected by culture in the medium containing G418 (1 mg/mL, LIFE TECHNOLOGIES), and then the activity against the uptake of methyl-α-D-gluco-pyranoside was measured by the method described below. […] CS1-5-11D cells were cultured in the presence of G418 at 200 μg/mL.
3) Measurement of the Inhibitory Activity Against the Uptake of methyl-α-D-glucopyranoside (α-MG)
CS1-5-11D cells were seeded into a 96-well culture plate at a density of 3×10^4 cells/well and cultured for 2 days, and were used in the uptake assay. A mixture of non-labeled (Sigma) and ^14C-labeled α-MG (Amersham Pharmcia Biotec) was added to the uptake buffer (pH 7.4; containing 140 mM sodium chloride, 2 mM potassium chloride, 1 mM calcium chloride, 1 mM magnesium chloride, 10 mM 2-[4-(2-hydroxyethyl)-1-piperazinyl]ethane sulfonic acid, and 5 mM tris(hydroxymethyl)aminomethane) at the final concentration of 1 mM. A test compound was dissolved in dimethyl sulfoxide, and then appropriately diluted with distilled water. The test compound solution was added to the uptake buffer containing 1 mM α-MG, and designated as a measurement buffer. For the control group, the measurement buffer without any test compound was prepared. For measuring the basal uptake, a basal uptake measurement buffer which contains 140 mM chorine chloride instead of sodium chloride was prepared. After removing the culture medium of CS1-5-11D cells, 180 μL of the pre-treatment buffer (the basal uptake buffer without α-MG) was added to each well and incubated at 37° C. for 10 minutes. After repeating the same treatment, the pre-treatment buffer was removed. To each well was added 75 μL of the measurement buffer or the basal uptake buffer was added and incubated at 37° C. for 1 hour. After removing the measurement buffer, cells were washed twice with 180 μL per well of the washing buffer (the basal uptake buffer containing 10 mM non-labeled α-MG). The cells were solubilized by 75 μL per well of 0.2 mol/L sodium hydroxide. The cell lysates were transferred into PicoPlates (Packard), and then added 150 μL of MicroScint-40 (Packard) and mixed. Radioactivity was measured by means of micro-scintillation counter TopCount (Packard). One hundred % was set to the difference between the uptake in the control group and the basal uptake, and the uptake of methyl α-D-gluco-pyranoside at each drug concentration were calculated.

IC50 [2]: 18 nM
Structure (SMILES): CC(C)c1[nH]nc(O[C@@H]2O[C@H](CO)[C@H](O)[C@H](O)[C@H]2O)c1Cc1ccc(CCCC(=O)NC(C)(C)C(=O)N2CCN(C)CC2)cc1 [Example 61, 3-(β-D-Galactopyranosyloxy)-5-isopropyl-4-{[4-(3-{1-[(4-methylpiperazin-1-yl)carbonyl]-1-(methyl)ethylcarbamoyl}-propyl)phenyl]methyl}-1H-pyrazole]
Plasma glucose concentration 0.5 h ([1]; 0.5 hour after drug administration): 136 ± 6 mg/dL
Plasma glucose concentration 1 h ([1]; 1 hour after drug administration): 172 ± 37 mg/dL
Plasma glucose concentration 0 h ([1]; pretreatment (0 h)): 116 ± 6 mg/dL
